Reference: PMC2939063, “In Vitro and In Vivo Studies of the Trypanocidal Properties of WRR-483 against Trypanosoma cruzi” (PLoS Neglected Tropical Diseases, 2010)
Entries after “also recorded” stand apart in the source; their conditions may differ.

Key:
[1] = target: T1, Cathepsin C (Homo sapiens, UniProt P53634); assay: Protease inhibition profiling (Reaction Biology Corp): Cathepsin C; format: biochemical
T1 construct: Reaction Biology Corp (screening service)

[2] = target: T2, Cathepsin B (Homo sapiens, UniProt P07858); assay: Protease inhibition profiling (Reaction Biology Corp): Cathepsin B; format: biochemical
T2 construct: Reaction Biology Corp (screening service)

[3] = target: T3, Cathepsin S (Homo sapiens, UniProt P25774); assay: Protease inhibition profiling (Reaction Biology Corp): Cathepsin S; format: biochemical
T3 construct: Reaction Biology Corp (screening service)
T3 sequence (P25774 115-331, species assumed): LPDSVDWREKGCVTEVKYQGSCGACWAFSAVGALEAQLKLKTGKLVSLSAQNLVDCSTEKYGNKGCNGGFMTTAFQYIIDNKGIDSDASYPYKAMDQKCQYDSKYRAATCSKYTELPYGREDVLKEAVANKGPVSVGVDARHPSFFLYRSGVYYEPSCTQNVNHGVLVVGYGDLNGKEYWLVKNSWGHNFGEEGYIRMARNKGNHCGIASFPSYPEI

[4] = tested on: T. cruzi infected J774 macrophages; assay: T. cruzi growth inhibition in infected J774 macrophages (cell survival); format: cell-based, Trypanosoma cruzi CA-I/72; settings: 10 µM inhibitor every 48 h until Day 27, experiment terminated on Day 47, untreated control 6 days
Protocol: CA-I/72 T. cruzi parasites were isolated from a chronic Chagasic patient, cloned, and maintained as previously described.[33]
For growth inhibition studies, J774 macrophages cultured in RPMI-1640 medium with 5% heat inactivated fetal calf serum (FCS) were irradiated (9000 rad) to arrest the cell cycle and plated onto 12-well tissue culture plates for 24 h at 37°C. After infection with 10^5 T. cruzi trypomastigotes per well for 2 hours, monolayers were washed with RPMI medium and treated with the inhibitors at 10 µM in RPMI medium (triplicate wells per inhibitor). Inhibitor stocks were made to 10 mM in DMSO and diluted prior to use. All assays include untreated, K11777-treated, and uninfected macrophage controls. Fresh medium with or without inhibitor was replaced every 48 h and inhibitor efficacy was monitored daily. Survival time was defined as the time before the cell monolayer was destroyed by the infection. Under these culture conditions, T. cruzi completed the intracellular cycle in 6 days in untreated controls. […] Macrophages were subsequently cultured in normal medium for up to 40 days to elucidate if the effective inhibitors were trypanocidal (cure host macrophages) or trypanostatic (delay intracellular cycle of the parasite).

[5] = target: T4, Cathepsin V (Homo sapiens, UniProt O60911); assay: Protease inhibition profiling (Reaction Biology Corp): Cathepsin V; format: biochemical; settings: read-out: IC50, Cathepsin V
T4 construct: Reaction Biology Corp (screening service)
T4 sequence (O60911 114-334, species assumed): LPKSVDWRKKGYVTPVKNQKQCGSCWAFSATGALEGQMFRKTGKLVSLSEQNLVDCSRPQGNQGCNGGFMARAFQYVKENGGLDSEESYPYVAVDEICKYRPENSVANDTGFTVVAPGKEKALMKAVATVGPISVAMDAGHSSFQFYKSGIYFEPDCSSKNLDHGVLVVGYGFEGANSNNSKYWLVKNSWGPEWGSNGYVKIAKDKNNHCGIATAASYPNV

[6] = tested on: T. cruzi CA-I/72 infected C3H mice; assay: Murine model of acute Chagas' disease; format: in vivo, mouse; parameters: key to Histopathology, Heart / Histopathology, Liver / Histopathology, Spleen / Histopathology, Colon: I/I: Inflammation and infiltration; +10A: Numerous nests of T. cruzi amastigotes; +A: 1-3 nests of T. cruzi amastigotes; Negative
Protocol: Three to four week old female C3H mice weighing ca. 20 g were used. The animals were separated into five lots of 5 mice per cage and infected with 10^6 tissue-culture derived trypomastigotes of the myotropic T. cruzi CA-I/72 cloned stock. The mice were treated with 100 mg compound/kg of body weight in 100 µL of solution (30–40% DMSO: 60–70% sterile distilled water) intraperitoneally twice a day. Treatment was initiated 12 h post infection and continued until cure, death of the animals, or for a total of 20 days. […] Parasitemias was determined at the end of the experiment when animals were euthanized. Tissues processed for histopathology include skeletal muscle, heart, liver, spleen, and colon. Blood (5–50 µL) was used for hemocultures. […] Compounds were considered toxic if life expectancy is lower than untreated controls (negative values). If necessary, PCR of blood and tissues was performed to confirm effectiveness of treatment and/or cure of treated animals. Results were expressed as survival (days) of treated animals.

[7] = target: T5, calpain-1 (Homo sapiens, UniProt P07384); assay: Protease inhibition profiling (Reaction Biology Corp): calpain-1; format: biochemical; settings: panel of 70 proteases
T5 construct: Reaction Biology Corp (screening service)
T5 sequence (P07384 1-714): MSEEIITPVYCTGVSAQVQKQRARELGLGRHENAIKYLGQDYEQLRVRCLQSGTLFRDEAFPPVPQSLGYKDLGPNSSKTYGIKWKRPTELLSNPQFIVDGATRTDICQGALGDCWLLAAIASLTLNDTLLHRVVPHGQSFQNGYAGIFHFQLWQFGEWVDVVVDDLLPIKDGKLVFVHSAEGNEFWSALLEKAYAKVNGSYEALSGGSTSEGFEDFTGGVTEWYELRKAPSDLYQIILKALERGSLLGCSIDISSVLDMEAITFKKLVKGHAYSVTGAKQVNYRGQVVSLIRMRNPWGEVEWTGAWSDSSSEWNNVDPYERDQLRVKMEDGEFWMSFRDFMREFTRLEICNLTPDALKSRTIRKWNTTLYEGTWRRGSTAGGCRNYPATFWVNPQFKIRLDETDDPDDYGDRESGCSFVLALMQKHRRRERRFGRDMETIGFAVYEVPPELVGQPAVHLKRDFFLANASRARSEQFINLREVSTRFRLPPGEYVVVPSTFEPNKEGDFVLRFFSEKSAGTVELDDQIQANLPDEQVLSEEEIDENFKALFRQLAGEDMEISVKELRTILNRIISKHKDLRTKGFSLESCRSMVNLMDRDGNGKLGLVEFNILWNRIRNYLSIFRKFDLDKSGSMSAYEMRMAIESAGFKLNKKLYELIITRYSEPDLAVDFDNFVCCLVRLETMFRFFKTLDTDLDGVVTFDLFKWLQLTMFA
T5 sequence (P04632 1-268 partner): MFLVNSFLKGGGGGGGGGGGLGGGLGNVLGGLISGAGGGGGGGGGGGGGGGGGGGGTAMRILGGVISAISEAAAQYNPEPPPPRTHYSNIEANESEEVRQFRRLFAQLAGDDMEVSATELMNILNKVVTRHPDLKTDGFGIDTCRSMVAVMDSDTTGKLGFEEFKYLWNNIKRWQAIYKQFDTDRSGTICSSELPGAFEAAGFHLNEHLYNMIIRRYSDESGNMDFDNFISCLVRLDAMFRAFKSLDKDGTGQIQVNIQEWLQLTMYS

[8] = target: T6, Papain (Carica papaya, UniProt P00784); assay: Protease inhibition profiling (Reaction Biology Corp): Papain; format: biochemical
T6 construct: Reaction Biology Corp (screening service)
T6 sequence (P00784 134-345): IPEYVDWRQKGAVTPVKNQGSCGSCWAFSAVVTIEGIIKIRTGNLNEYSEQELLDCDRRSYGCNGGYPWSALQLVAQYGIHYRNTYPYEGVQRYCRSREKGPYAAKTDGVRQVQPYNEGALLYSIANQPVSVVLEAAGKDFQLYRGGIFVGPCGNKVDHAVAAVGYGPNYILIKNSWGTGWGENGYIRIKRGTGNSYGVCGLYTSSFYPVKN

[9] = target: T7, Cathepsin L (Homo sapiens, UniProt P07711); assay: Protease inhibition profiling (Reaction Biology Corp): Cathepsin L; format: biochemical
T7 construct: Reaction Biology Corp (screening service)
T7 sequence (P07711 114-333, species assumed): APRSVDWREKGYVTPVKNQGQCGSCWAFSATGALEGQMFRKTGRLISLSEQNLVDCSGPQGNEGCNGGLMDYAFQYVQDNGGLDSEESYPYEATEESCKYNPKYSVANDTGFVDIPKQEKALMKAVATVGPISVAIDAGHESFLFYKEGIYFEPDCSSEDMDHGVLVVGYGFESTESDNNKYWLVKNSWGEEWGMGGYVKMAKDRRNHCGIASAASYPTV

[10] = individual infected mice, 100 mg/kg ip
[11] = individual infected mice, 100 mg/kg ip, 100 mg/kg

T1 sequence (P53634 25-463, species assumed): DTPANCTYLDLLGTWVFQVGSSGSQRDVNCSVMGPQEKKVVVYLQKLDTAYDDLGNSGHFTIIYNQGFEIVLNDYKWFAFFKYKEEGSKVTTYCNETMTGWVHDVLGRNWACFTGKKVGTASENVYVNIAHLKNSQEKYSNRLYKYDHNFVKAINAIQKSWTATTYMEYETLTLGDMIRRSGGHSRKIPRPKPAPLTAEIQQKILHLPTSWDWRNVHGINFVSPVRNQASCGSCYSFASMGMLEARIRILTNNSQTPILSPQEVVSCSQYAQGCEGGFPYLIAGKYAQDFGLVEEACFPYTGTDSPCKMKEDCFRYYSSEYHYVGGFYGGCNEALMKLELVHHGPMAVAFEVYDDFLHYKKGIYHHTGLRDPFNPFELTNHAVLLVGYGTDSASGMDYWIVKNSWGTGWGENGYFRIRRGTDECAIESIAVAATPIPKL

CN1CCN(C(=O)N[C@@H](CCCNC(=N)N)C(=O)N[C@H](/C=C/S(=O)(=O)c2ccccc2)CCc2ccccc2)CC1 [WRR-483]
IC50 [1]: 0.007 ± 0.0009 µM | IC50 [2]: 0.0039 ± 0.0001 µM | IC50 [3]: 0.0014 ± 1e-05 µM | T. cruzi infected cell survival [4]: 47 days | IC50 [5]: 0.335 ± 0.004 µM | T. cruzi infected mouse survival ([6]; 100 mg inhibitor/kg body weight in two daily doses, intraperitoneally, untreated control 21 days): 110 days | survival of the acute infection ([6]; 10^6 trypomastigotes CA-I/72, untreated controls died within 21–60 days): survived the acute infection | Histopathology, Colon [6, 10]: N | Histopathology, Liver [6, 10]: N | Histopathology, Spleen [6, 10]: N | Histopathology, Heart [6, 11]: N and Mild i/i | Histopathology, Sk. muscle [6, 11]: Moderate i/i; also recorded: +AIntense i/i | inhibition of calpain-1 [7]: no inhibition | IC50 [8]: 0.373 ± 0.044 µM | IC50 [9]: 0.053 ± 0.004 µM
